Results from patent US11248016B2, “Glycolipids and pharmaceutical compositions thereof for use in therapy” (THE UNIVERSITY OF NOTTINGHAM, priority 2014, dated 2022).
Entries after “also recorded” stand apart in the source; their conditions may differ.

Key:
[1] = test system: epidermal growth factor receptor (EGFR) 5′UTR; assay: 5′UTR firefly luciferase reporter assay, EGFR; format: cell-based, human; conditions: Neuroblastoma cells; FIG. 3d
Method: The 5′UTRs of genes which negatively associate with the progression of Alzheimer's disease—amyloid precursor protein (APP) and beta secretases (BACE) are all inhibited by treatment with a compound of Formula II, whereas the equivalent reporter levels of housekeeping genes actin and thioredoxin (TXN) are not inhibited. […] Neuroblastoma cells were transfected 24 hours prior to treatment with a compound of Formula II. After treatment, cells were prepared as described in the materials and methods. Each experiment represents between 6 and 8 biological repetitions.
After treatment with the compound of Formula II the levels of translation of a reporter construct containing the 5′UTR of amyloid precursor protein, which is processed into toxic amyloid the major constituent of amyloid plaques in Alzheimer's disease, is inhibited relative to equivalent control treatments. […]
Cells were transfected using FuGene 6 (Roche) following the manufacturer's instructions. The activities of firefly and renilla luciferase in lysates prepared from transfected cells were measured using a commercially available Luciferase reporter assay system (Promega) and light emission was measured over a 10 sec interval using a TECAN luminometer. […]

[2] = test system: A549 lung carcinoma cells; assay: Cell proliferation, A549 (WST-1 / MTT); format: cell-based
Method: Cisplatin™ resistant A549 lung cancer cells were sensitised to treatment with a compound of Formula II in combination with 1 μM Cisplatin™—a complete kill is achieved at higher doses of a compound of Formula II.
Cells were treated with a range of doses of active for either 48 or 96 hrs. Each data point is representaive of at least 4 biological repetitions.
Cells were treated with either 2 μM Cisplatin™ alone, c. 1 μg active alone or c. 1 μg active in combination with 2 μM Cisplatin™. A WST-1 cell proliferation assay was performed 96 hrs after treatment. Experiment represents 4 independent biological repetitions.
A WST-1 cell proliferation assay was performed 72 hrs after treatment. Experiment represents 4 independent biological repetitions.
Cells were treated with either 2 μM or 10 μM Cisplatin™ alone, or 10 μg synthetic molecule Formula II in combination with 2 μM Cisplatin™. A WST-1 cell proliferation assay was performed 72 hrs after treatment. Experiment represents 4 independent biological repetitions. A 5-fold increase in the efficacy of Cisplatin™ is observed when treated in combination with the synthetic Formula II.
Cells were treated with either 2 μM, 5 μM or 10 μM Cisplatin™ alone, 50 μg synthetic acetyl derivative molecule or 30 μg in combination with 2 μM Cisplatin™. A WST-1 cell proliferation assay was performed 72 hrs after treatment. Experiment represents four independent biological repetitions. No effect was detected after treatment with 50 μg synthetic acetyl derivative, however an 8-fold increase in the efficacy of Cisplatin™ is observed when treated in combination with 30 μg synthetic acetyl derivative and […] Cisplatin™.
FIG. 11—Natural molecule plus cisplatin compared to Hippuristanol plus cisplatin. […] The ratio between anti-proliferative activity to chemo sensitizing activity is also equivalent.
FIG. 13—Dose curves of compounds 46, 99 and 123. […] Cells were treated with a range of doses of active for 96 hrs. Each data point is representative of at least 4 biological repetitions and error=s.e.m).
FIG. 14—Cisplatin™ combination experiments—Compounds 46, 99 and 123. […] Cells were treated with a range of doses of active in combination with a range of doses of Cisplatin™ for 96 hrs. Each data point is representative of at least 4 biological repetitions and error=s.e.m).
Prior to treatment cells were cultured to an appropriate confluency in 96 well tissue culture plates (Fisher). Cells remained either supplemented with fresh media or treated with fresh media containing active or an equivalent volume of DMSO (vehicle control). Where used, Cisplatin™ was diluted to a stock concentration in Dimethylformamide (DMF), then handled as per the manufacturer's instructions. To determine relative cell viability, reagents WST-1 (Roche) or MTT (Sigma) were used as per the manufacturer's instructions and absorbance at 450 nm measured using a Victor plate reader (Perkin Elmer).

CC/C=C\C/C=C\C/C=C\CCCCCCCC(=O)OC[C@H](COC1OC(CO)C(O)C(O)C1O)OC(=O)CCCCCCC/C=C\C/C=C\C/C=C\CC (stereo partly drawn) [Formula II, 1,2-dioctadecatienyl-3-O-β-D-galactosyl-sn-glycerol]
firefly luciferase reporter activity, EGFR 5′UTR [1]: selectively inhibited; also recorded: significant inhibition (p=0.005)
increase in the efficacy of Cisplatin ([2]; 10 μg synthetic Formula II plus 2 μM Cisplatin, WST-1, 72 hrs, FIG. 9b): 5 fold
kill of A549 cells in combination with Cisplatin ([2]; 96 hours, plus 1 μM Cisplatin, higher doses of Formula II): complete kill
anti-proliferative activity on A549 cells ([2]; alone, FIG. 11): anti-proliferative
efficacy of Cisplatin on A549 cells in combination ([2]; c. 1 μg active plus 2 μM Cisplatin, WST-1, 96 hrs, FIG. 7): significant increase in the efficacy
sensitizing effect to Cisplatin on A549 cells ([2]; in combination with Cisplatin (2 μM), FIG. 11): equivalent to hippuristanol
growth of A549 cells ([2]; range of doses, 48 or 96 hrs, WST-1 and MTT, compound purified from natural source, FIG. 6): inhibits the growth
A549 cell growth, synthetic molecule ([2]; synthetic Formula II, WST-1, 72 hrs, FIG. 9a): inhibited by Formula II in a dose dependent manner
